Earlier results, collected in patent publication US8609668B2, “Substituted triazolo[1,5-A]pyrimidines as antiviral agents” (Philadelphia Health & Education Corporation, priority 2006, dated 2013).

Tested on: HBeAg secretion
Settings: in vivo and in vitro

## O=c1oc2c(O)c(O)cc3c(=O)oc4c(O)c(O)cc1c4c23 [Ellagic acid]
  secretion of HBeAg: specifically inhibit secretion of HBeAg
